Results taken from ChEMBL document CHEMBL5107992, “Development of potent non-acylhydrazone inhibitors of intestinal sodium-dependent phosphate transport protein 2b (NaPi2b)” (Bioorg Med Chem, 2022).
Values after ≈ are worked out from the molar mass of the structure shown.

What was measured:
[1] = Aqueous solubility of compound in PBS buffer at pH 7.4; assay type: physicochemical
[2] = biological target: T1, Sodium-dependent phosphate transport protein 2B (Homo sapiens, UniProt O95436); assay: Inhibition of human NaPi2b transfected in human KJMGER8 cells assessed as reduction in H2[33P]O4 uptake incubated for 60 mins by TopCount scintillation counting method; assay type: cell-based
T1 sequence (O95436 whole entry): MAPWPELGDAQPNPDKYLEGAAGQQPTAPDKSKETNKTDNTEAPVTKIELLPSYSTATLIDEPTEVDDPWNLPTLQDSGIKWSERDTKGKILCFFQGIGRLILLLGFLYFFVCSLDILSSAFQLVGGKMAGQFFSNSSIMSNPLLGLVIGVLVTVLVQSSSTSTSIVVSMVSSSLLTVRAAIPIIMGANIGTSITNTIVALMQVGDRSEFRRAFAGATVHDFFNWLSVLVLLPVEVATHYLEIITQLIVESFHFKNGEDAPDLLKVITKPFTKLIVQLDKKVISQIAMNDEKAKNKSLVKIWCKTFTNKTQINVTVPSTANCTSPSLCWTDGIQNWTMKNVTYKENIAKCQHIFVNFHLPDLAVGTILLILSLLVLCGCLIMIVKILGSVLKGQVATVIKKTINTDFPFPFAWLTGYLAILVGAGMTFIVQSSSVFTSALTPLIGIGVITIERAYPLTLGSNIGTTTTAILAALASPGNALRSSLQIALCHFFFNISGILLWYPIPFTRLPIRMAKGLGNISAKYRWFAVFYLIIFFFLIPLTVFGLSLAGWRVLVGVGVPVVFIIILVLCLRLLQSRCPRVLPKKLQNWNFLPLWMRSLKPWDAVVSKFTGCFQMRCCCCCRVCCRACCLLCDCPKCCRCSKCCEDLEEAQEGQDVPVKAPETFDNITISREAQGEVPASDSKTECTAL

[3] = Intestinal availability in Sprague-Dawley rat; assay type: ADME
[4] = Membrane permeability of compound; assay type: ADME; conditions: not told; read-out: permeability
[5] = Aqueous solubility of compound in PBS buffer at pH 6; assay type: physicochemical
[6] = Intestinal availability in rat at 3 mg/kg, po measured after 120 mins by LC/MS-MS analysis; assay type: ADME, organism-based; conditions: in vivo, 2 h

Structure (SMILES)	solubility [1]	IC50 [2]	also measured
COC(=O)c1ccc(CCc2ccc(NC(=O)c3c(NC(=O)c4cccc(OCCOCCOCCOCCOCCOCCOCC(=O)O)c4)sc4c3CCC(C)(C)C4)cc2C)cc1	116 µM (≈ 107 µg/mL)	71 nM	–
Cc1cc(NC(=O)c2c(NC(=O)c3cccc(OCCOCCOCCOCCOCCOCCOCC(=O)O)c3)sc3c2CCC(C)(C)C3)ccc1CCc1ccc(-c2nccs2)cc1	87 µM (≈ 82.1 µg/mL)	288 nM	–
CCC(CC)N(CCN(C)C(=O)CCC(=O)NCCOCCOCCOCCO)Cc1cccc(C(=O)Nc2sc3c(c2C(=O)c2cnn(-c4ccc(Cl)c(C(F)(F)F)c4)c2)CCC(C)(C)C3)c1	–	–	FaFg [3]: 0.2%
Cc1nnc(-c2ccc(CCc3ccc(NC(=O)c4c(NC(=O)c5cccc(CSCCOCCOCCOCCOCCOCCOCCOCCOCCC(=O)O)c5)sc5c4CCC(C)(C)C5)cc3)cc2)o1	91 µM (≈ 96.6 µg/mL)	24 nM	–
Cc1nnc(-c2ccc(CCc3ccc(NC(=O)c4c(NC(=O)c5cccc(COCCOCCOCCOCCOCCOCCOCC(=O)O)c5)sc5c4CCC(C)(C)C5)cc3)cc2)o1	62 µM (≈ 58.5 µg/mL)	103 nM	–
Cc1cc(NC(=O)c2c(NC(=O)c3cccc(OCCOCCOCCOCCOCCOCCOCC(=O)O)c3)sc3c2CCC(C)(C)C3)ccc1CCc1ccc(-c2ncco2)cc1	79 µM (≈ 73.3 µg/mL)	43 nM	–
CC1(C)CCc2c(sc(NC(=O)c3cccc(COCCOCCOCCOCCOCCOCCO)c3)c2C(=O)Nc2ccc(Cc3ccccc3)cc2)C1	0.48 µM (≈ 0.379 µg/mL)	< 100 nM	–
Cc1nnc(-c2ccc(CCc3ccc(NC(=O)c4c(NC(=O)c5cccc(COCCOCCOCCOCC(=O)O)c5)sc5c4CCC(C)(C)C5)cc3)cc2)o1	156 µM (≈ 127 µg/mL)	61 nM	–
COCCN(CCOCCOCCOCCOCCOCCOCc1cccc(C(=O)Nc2sc3c(c2C(=O)N/N=C/c2ccc(Cl)c(C(F)(F)F)c2)CCC(C)(C)C3)c1)CC(=O)O	–	–	FaFg [3]: 0.1%
CC1(C)CCc2c(sc3nc(-c4cccc(COCCOCCOCCOCCOCCOCCO)c4)oc(=O)c23)C1	36 µM (≈ 21.8 µg/mL)	2880 nM	–

More lines, main results first:

solubility [1]	IC50 [2]	Structure (SMILES)	also measured
0.39 µM (≈ 0.284 µg/mL)	< 100 nM	CCc1ccc(NC(=O)c2c(NC(=O)c3cccc(COCCOCCOCCOCCOCCOCCO)c3)sc3c2CCC(C)(C)C3)cc1	–
1.6 µM (≈ 1.36 µg/mL)	< 100 nM	COC(=O)c1ccc(CCc2ccc(NC(=O)c3c(NC(=O)c4cccc(OCCOCCOCCOCCOCCOCCO)c4)sc4c3CCC(C)(C)C4)cc2)cc1	–
0.72 µM (≈ 0.63 µg/mL)	< 100 nM	COC(=O)c1ccc(CCc2ccc(NC(=O)c3c(NC(=O)c4cccc(COCCOCCOCCOCCOCCOCCO)c4)sc4c3CCC(C)(C)C4)cc2C)cc1	–
115 µM (≈ 95.8 µg/mL)	< 100 nM	CC1(C)CCc2c(sc(NC(=O)c3cccc(OCCOCCOCCOCCOCCOCCO)c3)c2C(=O)Nc2ccc(CCc3ccc(C(=O)O)cc3)cc2)C1	–
2.3 µM (≈ 1.68 µg/mL)	1140 nM	COc1ccc(NC(=O)c2c(NC(=O)c3cccc(COCCOCCOCCOCCOCCOCCO)c3)sc3c2CCC(C)(C)C3)cc1	–
96 µM (≈ 80.5 µg/mL)	14 nM	Cc1nnc(-c2ccc(CCc3ccc(NC(=O)c4c(NC(=O)c5cccc(CN(C)CCOCCOCCOCCC(=O)O)c5)sc5c4CCC(C)(C)C5)cc3)cc2)o1	Papp [4]: < 0.09 ×10⁻⁶ cm/s; solubility [5]: 52 µM (≈ 43.6 µg/mL); FaFg [6]: 5.9%
81 µM (≈ 56.6 µg/mL)	1400 nM	CC1(C)CCc2c(sc(NC(=O)c3cccc(COCCOCCOCCOCCOCCOCCO)c3)c2C(=O)Nc2ccccc2)C1	–
